# Experimental data: paper PMC6244536, “In Vivo Stabilized SB3, an Attractive GRPR Antagonist, for Pre- and Intra-Operative Imaging for Prostate Cancer” (Molecular Imaging and Biology, 2018)
# Read-outs that look alike come from different tables or passages of the source.
# Experiments:
# [1] = healthy mice, blood 5 min p.i., radio-HPLC, mean ± SD; for intact radiotracer, % of remaining circulating activity in blood: 200 pmol/25 MBq i.v.; for intact radiotracer in blood: 2000 pmol/25 MBq i.v.
# Procedure: To determine the stability of [^111In]SB3 −/+ PA in vivo, healthy mice (n = 3 per group) were intravenously injected with 200 pmol/25 MBq or 2000 pmol/25 MBq [^111In]SB3 (volume 100 μl), co-injected with either 300 μg/100 μl PA (Peptides International Inc.) in 0.5 % ethanol or 100 μl saline solution. Five minutes after injection of [^111In]SB3 −/+ PA, blood (0.5–1 ml) was collected by cardiac puncture, while animals were under isoflurane/O2 anesthesia, and transferred to blood-collection tubes containing 90 USP units of lithium heparin (spray coated), HPLC grade ethanol was added in a 1:1 (v/v) ratio, and the tubes were placed on ice. Blood samples were centrifuged 5 min at 1250g, and supernatant was collected. Next, the collected supernatant was centrifuged again for 5 min at 12,500g. The secondary supernatant was collected and diluted with MilliQ down to < 25 % ethanol before injection on HPLC. The samples were analyzed by HPLC (Alliance, Waters) including a Symmetry C18 column (5 μm × 4.6 mm × 250 mm). Elution was performed in a 1-ml/min flow, completed in 30 min, with the gradient 0–5 min 100 % A, 5–5.01 min 40 % A 60 % B, 5.01–20 min 20 % A 80 % B, 20–20.01 min 100 % B, 20.01–25 min 100 % B, and 25.01–30 min 100 % A, where A was 0.1 % TFA in H2O and B was methanol.
# [2] = Indium-111 labeled; cited from earlier work
# Excerpt: Preclinical as well as clinical PET imaging studies using [^68Ga]SB3 have been performed with great success. […] To increase the in vivo stability of radiopeptides, multiple solutions are available, including structural modifications of a peptide or the novel approach of inhibition of enzymes responsible for enzymatic degradation. Since structural modifications are time consuming, and ...
# [3] = test system: PC-3 tumor xenografts (GRPR-expressing); conditions: 1 h p.i.; for tumor ROI signal intensity on SPECT: 25 MBq/200 pmol i.v.
# Procedure: For SPECT/MRI, PC-3-xenografted mice were intravenously injected with 25 MBq/200 pmol [^111In]SB3, co-injected with either 300 μg/100 μl PA in 0.5 % ethanol or 100 μl saline solution. Subsequently, imaging was performed 1, 4, and 24 h p.i. of the radiotracer, while animals were anesthetized using isoflurane/O2, body temperature was maintained using warm air flow, and respiratory rate was monitored. Whole-body SPECT images were acquired using the novel and state-of-the-art four-head multipinhole system (NanoScan SPECT/MRI, Mediso Medical Imaging) in 30 min (28 projections, 29 s/projection, and 7-cm axial field of view). Images were reconstructed using OSEM with six iterations and four subsets on a 120 × 120 matrix with 0.25 × 0.25 × 0.25-mm isotropic voxels. MR-based attenuation correction was applied to all images. T2 MR images were acquired using a spin echo sequence (TR/TE = 4500/52 ms) with a 35-mm-diameter solenoid coil. Other scan parameters were field of view 70 mm, matrix 256 × 128, and slice thickness 1 mm with 0.1-mm spacing between slices. An ROI of the tumor was drawn by an experienced technician on the T2-weighted MR image to measure the intensity in the SPECT image.
# [4] = test system: PC-3 tumor xenografts (GRPR-expressing); assay: in vivo; conditions: mouse
# Procedure: (§1) Healthy or xenografted Balb c nu/nu male mice (Janvier) were used in this study. To obtain xenografted mice, animals were injected subcutaneously in the right shoulder with PC-3, 3 × 10^6 cells in Matrigel (total volume 150 μl, solution 66 % RPMI, 33 % Matrigel) per animal. Prior to tumor cell inoculation, the PC-3 cells were cultured in RPMI medium supplemented with 10 % fetal bovine serum, 5000 IU/ml penicillin, and 5000 μg/ml streptomycin at 37 °C in a humidified atmosphere containing 5 % CO2. PC295 is an androgen-dependent, patient-derived cell line with high GRPR expression. Xenografts were generated by subcutaneous implantation of the PC295 human prostate tumor as previously described and were stored at − 80 °C until further use. All culture supplies were purchased at Gibco.
# (§2) Tumor-bearing mice received an intravenous injection of 200 pmol/2.5 MBq [^111In]SB3, co-injected with either 300 μg/100 μl PA in 0.5 % ethanol or 100 μl saline solution (n = 4 animals per group for each time point). […] To determine specificity of tumor and organ uptake, blocking experiments were performed; an additional group of animals (n = 3) was pre-injected with an excess (20 nmol) of unlabeled SB3 followed by injection of the radiotracer −/+ PA. At three different time points p.i. (1, 4, and 24 h), animals were euthanized and blood, organs, and tumors were collected, weighed, and measured in a γ-counter (1480 WIZARD automatic γ-counter, PerkinElmer). For γ-counter measurements, an isotope specific energy window, a counting time of 60 s, and a counting error ≤ 5 % were used. Results were expressed as the percentage of the injected dose per gram tissue (% ID/g tissue). Animals that had ≥ 7 % ID in the tail were excluded.
# (§3) All statistical evaluations were performed with GraphPad Prism software (version 5.01). The IC50 value was calculated using a log (inhibitor) vs response model. To compare in vivo stability −/+ PA, radioactivity uptake in the tumor −/+ PA and radioactivity uptake in the tumor without and with an excess of unlabeled peptide an unpaired t test was used. P values < 0.05 were considered statistically significant. Tumor to organ uptake ratios were calculated per animal and expressed as mean and standard deviation per group.
# in vivo = conditions: male, Balb c nu/nu, mouse, iv, total radioactivity
# Procedure: as §1, §2, §3
# human GRPR = human GRPR (Homo sapiens, UniProt P30550); assay: biochemical
# Procedure: as §3
# [5] = pre-clinical studies of PA combined with radiotracers; cited from earlier work
# Excerpt: For application in patients, NEP inhibitors that are already approved for clinical use such as Sacubitril and Racecadotril might be applied.
# [6] = co-injected with 300 μg PA, n = 3
# Chain of human GRPR (P30550 whole entry): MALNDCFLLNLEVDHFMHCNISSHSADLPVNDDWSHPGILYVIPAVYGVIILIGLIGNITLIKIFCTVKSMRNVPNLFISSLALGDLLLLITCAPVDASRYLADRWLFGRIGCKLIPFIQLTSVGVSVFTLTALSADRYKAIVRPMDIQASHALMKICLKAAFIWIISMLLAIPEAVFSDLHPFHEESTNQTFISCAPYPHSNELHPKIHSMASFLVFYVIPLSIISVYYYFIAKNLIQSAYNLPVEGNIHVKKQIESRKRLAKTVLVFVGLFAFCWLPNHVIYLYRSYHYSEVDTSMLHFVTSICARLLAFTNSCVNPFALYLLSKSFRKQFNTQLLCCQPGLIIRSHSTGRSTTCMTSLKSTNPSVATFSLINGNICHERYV
compound,measurement,setting,value
"CCNC(=O)[C@H](CC(C)C)NC(=O)[C@H](Cc1c[nH]cn1)NC(=O)CNC(=O)[C@@H](NC(=O)[C@H](C)NC(=O)[C@H](Cc1c[nH]c2ccccc12)NC(=O)[C@H](CCC(N)=O)NC(=O)[C@@H](Cc1ccccc1)NC(=O)COCC(=O)Nc1ccc(CNC(=O)CN2CCN(CC(=O)O)CCN(CC(=O)O)CCN(CC(=O)O)CC2)cc1)C(C)C [[^111In]SB3, metal not drawn]","intact radiotracer, % of remaining circulating activity in blood",[1]; [6],86.7 ± 1.5%
same,"intact radiotracer, % of remaining circulating activity in blood","[1]; without PA, n = 3",37.3 ± 2.5%
same,intact radiotracer in blood,[1]; [6],87.9 ± 1.1%
same,intact radiotracer in blood,"[1]; without PA, one animal excluded",42.0 ± 0.2%
same,in vivo stability,[2],poor in vivo stability
same,tumor ROI signal intensity on SPECT,[3]; with 300 μg PA,2434 kBq/ml
same,tumor ROI signal intensity on SPECT,[3]; without PA,1424 kBq/ml
same,increase in tumor signal intensity with PA vs without PA,"[3]; ROI analysis, 25 MBq/200 pmol",70%
same,uptake in the pancreas and the tumor with an excess of unlabeled SB3 (blocking),[4],significantly decreased
same,tissue uptake at 1 h,"in vivo; 200 pmol, pancreatic uptake",4.1 ± 2.3 %ID/g
same,tissue uptake at 1 h,"in vivo; 200 pmol, renal uptake",3.9 ± 1.4 %ID/g
same,tissue to tissue ratio at 1 h,"in vivo; 200 pmol, tumor to kidney ratio",2.8 ± 1
same,tissue to tissue ratio at 1 h,"in vivo; 200 pmol, tumor to pancreas radioactivity ratio",3.4 ± 2.5
same,tissue uptake at 1 h,"in vivo; 200 pmol, tumor uptake",10.2 ± 1.5 %ID/g
same,tissue uptake at 4 h,"in vivo; 200 pmol, tumor uptake",8.3 ± 1.1 %ID/g
same,tissue uptake at 24 h,"in vivo; 200 pmol, tumor uptake",3.1 ± 1.9 %ID/g
same,tissue uptake at 1 h,in vivo; pancreatic uptake,10.1 ± 4.3 %ID/g
same,tissue uptake at 1 h,in vivo; renal uptake,4.5 ± 1.4 %ID/g
same,tissue to tissue ratio at 1 h,in vivo; tumor to kidney ratio,4.8 ± 2.2
same,tissue to tissue ratio at 1 h,in vivo; tumor to pancreas radioactivity ratio,2.2 ± 0.8
same,tissue uptake at 1 h,in vivo; tumor uptake,19.7 ± 3.5 %ID/g
same,tissue uptake at 4 h,in vivo; tumor uptake,17.6 ± 5.1 %ID/g
same,tissue uptake at 24 h,in vivo; tumor uptake,6.5 ± 3.3 %ID/g
"CCNC(=O)[C@H](CC(C)C)NC(=O)[C@H](Cc1c[nH]cn1)NC(=O)CNC(=O)[C@@H](NC(=O)[C@H](C)NC(=O)[C@H](Cc1c[nH]c2ccccc12)NC(=O)[C@H](CCC(N)=O)NC(=O)[C@@H](Cc1ccccc1)NC(=O)COCC(=O)Nc1ccc(CNC(=O)CN2CCN(CC(=O)O)CCN(CC(=O)O)CCN(CC(=O)O)CC2)cc1)C(C)C [SB3, Sarabesin 3]",IC50,human GRPR,3.5 nM
"CC(C)C[C@H](NP(=O)(O)O[C@@H]1O[C@@H](C)[C@H](O)[C@@H](O)[C@H]1O)C(=O)N[C@@H](Cc1c[nH]c2ccccc12)C(=O)O [PA, phosphoramidon]",adverse events,[5],have not indicated any adverse events
